Values joined by “and” are separate entries in the source; they are usually repeats but may differ in a detail not shown here. Equal entries are not always repeated. Where two headings read alike, the source gives them in different places.
Legend:
recombinant human cPLA2α = target: T1, recombinant human cPLA2α (Homo sapiens, UniProt P47712); assay: radioactivity-based mixed micelle assay, cPLA2α; type: biochemical; details: for cPLA2α XI(50): XI(50) ± stdev, mole fraction of inhibitor in total substrate interface for 50% inhibition; for cPLA2 % inhibition at 0.091 mole fraction, average: average of triplicates; for times more potent than GK470: cPLA2α XI(50) relative to GK470; for cPLA2α inhibition, Xi50 dose-response: replicates
T1 sequence (P47712 1-749): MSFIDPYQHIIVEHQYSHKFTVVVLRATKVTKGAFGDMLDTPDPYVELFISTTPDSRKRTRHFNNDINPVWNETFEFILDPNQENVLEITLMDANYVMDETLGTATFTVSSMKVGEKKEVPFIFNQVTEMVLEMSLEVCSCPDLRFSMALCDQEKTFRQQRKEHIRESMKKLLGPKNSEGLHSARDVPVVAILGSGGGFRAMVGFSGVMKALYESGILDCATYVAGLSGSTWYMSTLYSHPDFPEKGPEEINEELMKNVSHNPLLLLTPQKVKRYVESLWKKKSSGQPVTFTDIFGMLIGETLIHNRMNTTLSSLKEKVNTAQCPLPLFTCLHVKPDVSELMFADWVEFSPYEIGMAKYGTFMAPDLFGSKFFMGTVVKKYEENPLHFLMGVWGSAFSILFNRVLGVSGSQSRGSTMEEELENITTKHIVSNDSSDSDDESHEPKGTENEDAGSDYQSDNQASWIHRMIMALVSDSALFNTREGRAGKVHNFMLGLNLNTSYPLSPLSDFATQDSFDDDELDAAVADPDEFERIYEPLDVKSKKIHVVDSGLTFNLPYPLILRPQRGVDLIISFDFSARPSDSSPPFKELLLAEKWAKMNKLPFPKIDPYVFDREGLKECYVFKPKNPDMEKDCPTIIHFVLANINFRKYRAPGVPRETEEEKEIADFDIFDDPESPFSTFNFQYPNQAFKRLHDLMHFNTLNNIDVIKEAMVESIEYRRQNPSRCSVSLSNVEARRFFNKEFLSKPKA
Experimental: (§1) All synthesized thiazolyl ketones were tested for their in vitro inhibitory activity on recombinant human cPLA2α and selectivity over human calcium-independent GVIA iPLA2 and secreted GV sPLA2 using our previously described group-specific radioactivity-based mixed micelle assays. The inhibition results are presented either as per cent inhibition or as XI(50) values in Table 1. […] The XI(50) is defined as the mole fraction of the inhibitor in the total substrate interface required to inhibit the enzyme activity by 50%. For comparison purposes, previously published data for the inhibitor GK470[19] are included. […] Inhibitors were initially screened at 0.091 mol fraction (5 μL of 5 mM inhibitor in DMSO) in substrate (495 μL) in technical triplicates. […] The XI(50) value and stdev values reported are for the entire curve. This analysis was performed in GraphPad Prism v6.

secreted GV sPLA2 = target: T2, secreted GV sPLA2 (Homo sapiens, UniProt P39877); assay: radioactivity-based mixed micelle assay, GV sPLA2; type: biochemical
T2 sequence (P39877 21-138): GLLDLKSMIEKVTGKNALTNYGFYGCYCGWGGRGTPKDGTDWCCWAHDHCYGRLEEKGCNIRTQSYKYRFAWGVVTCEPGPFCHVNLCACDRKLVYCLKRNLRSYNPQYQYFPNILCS
Experimental: as §1

[1] = 0.091 mole fraction, read-out: cPLA2α % Inhib
[2] = individual technical replicate, read-out: cPLA2 % inhibition at 0.091 mole fraction
[3] = 0.091 mole fraction, read-out: GV sPLA2 % Inhib
[4] = average of triplicates, read-out: sPLA2 % inhibition at 0.091 mole fraction, average
[5] = individual technical replicate, read-out: sPLA2 % inhibition at 0.091 mole fraction

Structure (SMILES) | inhibition at 0.091 mole fraction (recombinant human cPLA2α; [1]) [%] | inhibition at 0.091 mole fraction (recombinant human cPLA2α; [2]) [%] | inhibition at 0.091 mole fraction (secreted GV sPLA2; [3]) [%] | inhibition at 0.091 mole fraction (secreted GV sPLA2; [4]) [%] | inhibition at 0.091 mole fraction (secreted GV sPLA2; [5]) [%] | cPLA2α XI(50) (recombinant human cPLA2α) | cPLA2 % inhibition at 0.091 mole fraction, average (recombinant human cPLA2α) [%] | times more potent than GK470 (recombinant human cPLA2α) | cPLA2α inhibition, Xi50 dose-response (recombinant human cPLA2α; Log [inhibitor] (mole%) -4.30) | cPLA2α inhibition, Xi50 dose-response (recombinant human cPLA2α; Log [inhibitor] (mole%) -3.00) | cPLA2α inhibition, Xi50 dose-response (recombinant human cPLA2α; Log [inhibitor] (mole%) -1.00) | cPLA2α inhibition, Xi50 dose-response (recombinant human cPLA2α; Log [inhibitor] (mole%) -1.22) | sPLA2 % inhibition at 0.091 mole fraction (secreted GV sPLA2; individual technical replicate) [%]
CCCCCCOc1ccc(SCC(=O)c2nc(C(=O)OC)cs2)cc1 [GK419] | 50 | 54 | 29 | 29.2 | 33.4 | – | – | – | – | – | – | – | –
COC(=O)c1csc(C(=O)COc2ccc(Oc3ccccc3)cc2)n1 [GK403] | 95 | 95.1 | 32 | – | 27.6 | 0.0014 mole fraction and 0.0014 ± 0.0001 mole fraction | 95.4 | – | – | – | – | – | –
CCCCCCCCc1ccc(OC(C)C(=O)c2nc(C(=O)OC)cs2)cc1 (stereo not drawn) [GK402] | 79 | 81 | 50 | 49.5 | 50.4 | – | 79.2 | – | – | – | – | – | –
CCCCCCSc1ccc(OC(C)C(=O)c2nc(C(=O)OC)cs2)cc1 (stereo not drawn) [GK449] | 98 | 96.2 | 53 | – | 51.8 | 0.0017 mole fraction and 0.0017 ± 0.0005 mole fraction | 97.5 | 7–11 | – | – | – | – | –
CCCCCCSc1ccc(OCC(=O)c2nc(C(=O)OC)cs2)cc1 [GK427] | 98 | 98.4 | 44 | 43.6 | 39.7 | 0.0010 mole fraction and 0.0010 ± 0.0001 mole fraction | – | 7–11 | 14.10 | – | – | – | –
CCCCCCCOc1ccc(OC(C)C(=O)c2nc(C(=O)OC)cs2)cc1 (stereo not drawn) [GK439] | 97 | 96 | 53 | 53.3 | 50.7 | 0.0029 mole fraction and 0.0029 ± 0.0004 mole fraction | 96.6 | – | – | 33.0 | – | – | –
CCCCCCCCc1ccc(OCC(=O)c2nc(C(=O)OCC)cs2)cc1 [GK401] | 89 | 88.4 | 46 | 46.1 | 45.9 | – | 88.7 | – | – | – | – | – | –
COC(=O)c1csc(C(=O)COc2ccc(Oc3ccc(F)cc3)cc2)n1 [GK440] | 100 | 99.5 | 31 | 30.8 | 34.1 | 0.0010 mole fraction and 0.0010 ± 0.0001 mole fraction | 100.3 | – | – | – | 102.2 | 99.7 | 29.2
CCCCCCCOc1ccc(OCC(=O)c2nc(C(=O)OC)cs2)cc1 [GK420] | 98 | 97.2 | 46 | 46.4 | 48.2 | 0.0016 mole fraction and 0.0016 ± 0.0002 mole fraction | – | 7–11 | – | – | – | – | –
COC(=O)c1csc(C(=O)C(C)Oc2ccc(Oc3ccccc3)cc2)n1 (stereo not drawn) [GK428] | 94 | 94.2 | 36 | 36.4 | 28.3 | 0.0038 mole fraction and 0.0038 ± 0.0001 mole fraction | – | – | – | – | – | – | –

Source: paper PMC11696576, “Next generation thiazolyl ketone inhibitors of cytosolic phospholipase A2 α for targeted cancer therapy” (Nature Communications, 2025)
